≈ marks a conversion by molar mass, not a printed value. Where two headings read alike, the source gives them in different places. Values belong to the compound of their own block, whether it stands above or below them.
Experiments:
human (hACC2) ACC2 = human (hACC2) ACC2 (Homo sapiens, UniProt O00763); test: In vitro Acetyl-CoA Carboxylase (ACC) inhibition assay (ADP-Glo), hACC2; type: biochemical
Protocol: The detailed procedure is as follows. […] 10 μL ADP glo reagent was added. […] 20 μL kinase detection reagent was added.
“NA” stands for “not assayed.”

C. albicans ATCC 90028 = test: Anti-Fungal (Candida) Activity Assay, broth microtiter MIC; type: cell-based; conditions: read-out: MIC C. albicans ATCC 90028
In short: (§1)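 Following CLSI M27-A3 broth microdilution, direct colony suspensions in RPMI 1640+MOPS were challenged with compounds. MICs were read visually against the growth control after 48 h.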

C. krusei ATCC 6258 = test: as above; type: cell-based; conditions: Pichia kudriavzevii, read-out: MIC C. krusei ATCC 6258
In short: as §1

[1] = test system: C. parapsilosis ATCC 22019; test: as above; type: cell-based; conditions: Lodderomyces parapsilosis, read-out: MIC C. parapsilosis ATCC 22019
In short: as §1

Botrtyis cinerea (Bc) = test: Growth inhibition assay of fungal pathogens; type: cell-based; conditions: 48 h, read-out: Concentration at 90% Inhibition Bc
In short: (§2)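 Percent growth inhibition was derived from 48 h OD600 and visual scores relative to 2% DMSO, with blank background subtraction. Fungi were grown from spores in 17% V8 liquid medium, R. solani from 1.5 mm plugs in ¼ PDB, with compound at final 50/10/2 or 2/0.4/0.08 ppm.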

[2] = test system: Collectotrichum graminicola (Cg); test: Growth inhibition assay of fungal pathogens; type: cell-based; conditions: 48 h, read-out: Concentration at 90% Inhibition Cg
In short: (§3)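 Liquid-culture assay in which test compounds are applied at three final concentrations (50, 10, 2 ppm or 2, 0.4, 0.08 ppm). Inoculum levels follow 48 h growth curves for each fungus. Growth is monitored by OD600 and by eye, and the 48 h values give % inhibition against DMSO.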

Diplodia maydis (Dm) = test: Growth inhibition assay of fungal pathogens; type: cell-based; conditions: Stenocarpella maydis, 48 h, read-out: Concentration at 90% Inhibition Dm
In short: as §2

[3] = test system: Fusarium moniliforme (Fm); test: Growth inhibition assay of fungal pathogens; type: cell-based; conditions: for IC90: Fusarium verticillioides, 48 h, read-out: Concentration at 90% Inhibition Fm
In short: as §2

[4] = test system: Fusarium virguliforme (Fv); test: Growth inhibition assay of fungal pathogens; type: cell-based; conditions: 48 h
In short: as §3

[5] = test system: Phytophthora capsici (Pc); test: Growth inhibition assay of fungal pathogens; type: cell-based; conditions: for IC90: Phytophthora capsici, read-out: Concentration at 90% Inhibition Pc
In short: as §3

Rhizoctonia solani (Rs) = test: Growth inhibition assay of fungal pathogens; type: cell-based; conditions: 48 h, read-out: Concentration at 90% Inhibition Rs
In short: as §2

Septoria tritici (St) = test: Growth inhibition assay of fungal pathogens; type: cell-based; conditions: for IC90: Zymoseptoria tritici, read-out: Concentration at 90% Inhibition St
In short: as §3

[6] = ATCC90028, 3 replicates, MIC recorded at 48 h
[7] = ATCC6258, 3 replicates, MIC recorded at 48 h
[8] = ATCC22019, 3 replicates, MIC recorded at 48 h
[9] = Table 4a, 48 hours, read-out: Concentration at 90% Inhibition Fv
[10] = Table 4b, 48 hours, read-out: Concentration at 90% Inhibition Fv

Sequence of human (hACC2) ACC2 (O00763 whole entry): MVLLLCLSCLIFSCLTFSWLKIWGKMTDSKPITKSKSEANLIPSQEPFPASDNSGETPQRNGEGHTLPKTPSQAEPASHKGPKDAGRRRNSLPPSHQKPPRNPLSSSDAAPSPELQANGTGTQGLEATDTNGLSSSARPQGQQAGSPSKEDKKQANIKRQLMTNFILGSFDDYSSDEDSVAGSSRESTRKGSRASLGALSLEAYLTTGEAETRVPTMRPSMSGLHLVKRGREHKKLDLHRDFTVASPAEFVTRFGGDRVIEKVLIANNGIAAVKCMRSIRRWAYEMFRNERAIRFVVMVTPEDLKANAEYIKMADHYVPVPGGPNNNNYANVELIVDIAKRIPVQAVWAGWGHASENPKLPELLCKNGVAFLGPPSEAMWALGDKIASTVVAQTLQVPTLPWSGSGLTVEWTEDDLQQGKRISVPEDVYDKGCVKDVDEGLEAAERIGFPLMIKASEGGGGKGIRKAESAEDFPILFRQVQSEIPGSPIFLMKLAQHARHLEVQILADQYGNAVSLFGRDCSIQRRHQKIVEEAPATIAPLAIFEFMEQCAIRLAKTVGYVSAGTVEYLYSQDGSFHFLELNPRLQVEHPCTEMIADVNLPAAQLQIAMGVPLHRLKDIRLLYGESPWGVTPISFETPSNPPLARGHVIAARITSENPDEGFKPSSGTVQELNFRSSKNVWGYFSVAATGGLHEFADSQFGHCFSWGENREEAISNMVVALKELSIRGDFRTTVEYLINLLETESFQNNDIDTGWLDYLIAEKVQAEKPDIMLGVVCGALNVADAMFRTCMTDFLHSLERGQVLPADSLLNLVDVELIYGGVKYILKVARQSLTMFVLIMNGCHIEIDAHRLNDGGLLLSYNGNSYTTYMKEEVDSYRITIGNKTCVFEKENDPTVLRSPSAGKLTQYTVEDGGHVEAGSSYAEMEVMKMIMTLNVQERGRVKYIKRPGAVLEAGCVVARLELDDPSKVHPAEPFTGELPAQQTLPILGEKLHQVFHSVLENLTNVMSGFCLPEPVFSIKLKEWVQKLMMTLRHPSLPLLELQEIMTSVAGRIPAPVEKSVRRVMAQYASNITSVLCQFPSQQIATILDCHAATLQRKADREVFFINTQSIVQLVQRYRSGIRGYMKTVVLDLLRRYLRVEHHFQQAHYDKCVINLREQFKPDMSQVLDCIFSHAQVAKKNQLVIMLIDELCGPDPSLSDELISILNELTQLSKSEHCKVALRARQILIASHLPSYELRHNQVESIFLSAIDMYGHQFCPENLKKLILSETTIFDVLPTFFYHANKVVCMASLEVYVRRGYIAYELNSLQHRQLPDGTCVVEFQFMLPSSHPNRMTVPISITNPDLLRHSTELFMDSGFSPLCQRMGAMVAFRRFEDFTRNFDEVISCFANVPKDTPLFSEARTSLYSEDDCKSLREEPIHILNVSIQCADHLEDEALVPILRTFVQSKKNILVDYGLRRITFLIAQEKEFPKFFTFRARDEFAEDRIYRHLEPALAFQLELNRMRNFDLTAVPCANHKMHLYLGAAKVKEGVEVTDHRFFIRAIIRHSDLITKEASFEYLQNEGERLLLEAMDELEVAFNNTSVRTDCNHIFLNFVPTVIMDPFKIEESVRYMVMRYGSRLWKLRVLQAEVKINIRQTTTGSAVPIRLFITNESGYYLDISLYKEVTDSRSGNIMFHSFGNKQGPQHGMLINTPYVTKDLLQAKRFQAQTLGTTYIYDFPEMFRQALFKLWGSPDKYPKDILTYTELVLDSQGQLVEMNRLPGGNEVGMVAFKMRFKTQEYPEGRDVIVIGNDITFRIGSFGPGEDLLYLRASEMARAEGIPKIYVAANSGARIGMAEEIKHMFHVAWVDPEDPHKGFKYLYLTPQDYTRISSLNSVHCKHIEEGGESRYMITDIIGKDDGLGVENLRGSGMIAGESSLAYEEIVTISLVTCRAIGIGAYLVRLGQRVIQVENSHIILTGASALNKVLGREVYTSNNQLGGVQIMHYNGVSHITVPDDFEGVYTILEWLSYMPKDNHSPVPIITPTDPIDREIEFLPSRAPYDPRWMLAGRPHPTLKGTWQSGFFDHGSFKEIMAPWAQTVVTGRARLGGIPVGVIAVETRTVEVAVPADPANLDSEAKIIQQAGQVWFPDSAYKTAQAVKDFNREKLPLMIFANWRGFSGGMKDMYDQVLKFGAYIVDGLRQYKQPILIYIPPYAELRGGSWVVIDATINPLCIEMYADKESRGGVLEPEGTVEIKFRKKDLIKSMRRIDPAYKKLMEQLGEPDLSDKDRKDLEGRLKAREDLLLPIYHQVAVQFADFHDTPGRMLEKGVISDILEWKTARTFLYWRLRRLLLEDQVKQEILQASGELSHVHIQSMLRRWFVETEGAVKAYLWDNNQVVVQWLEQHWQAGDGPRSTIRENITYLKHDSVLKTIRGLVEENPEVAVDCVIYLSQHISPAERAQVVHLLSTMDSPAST

Structure (SMILES): COc1ccccc1[C@H](Cn1c(=O)n(C(C)(C)C(=O)N2CCCC2)c(=O)c2c(C)c(-n3cccn3)sc21)OCC(C)C [Compound I-22, (R)-1-(2-isobutoxy-2-(2-methoxyphenyl)ethyl)-5-methyl-3-(2-methyl-1-oxo-1-(pyrrolidin-1-yl)propan-2-yl)-6-(1H-pyrazol-1-yl)thieno[2,3-d]pyrimidine-2,4(1H,3H)-dione]
IC50 (human (hACC2) ACC2): 3 to 10 nM
MIC (C. albicans ATCC 90028; [6]): 0.25 to 1 µg/mL (≈ 0.421 to 1.68 µM)
MIC (C. krusei ATCC 6258; [7]): 0.25 to 1 µg/mL (≈ 0.421 to 1.68 µM)
MIC [1, 8]: 1.1 to 2 µg/mL (≈ 1.85 to 3.37 µM)
IC90 (Botrtyis cinerea (Bc); Table 4a): 2 µg/mL (≈ 3.37 µM)
IC90 (Botrtyis cinerea (Bc); Table 4b): 2 µg/mL (≈ 3.37 µM)
IC90 ([2]; Table 4a): 2 µg/mL (≈ 3.37 µM)
IC90 ([2]; Table 4b): 2 µg/mL (≈ 3.37 µM)
IC90 (Diplodia maydis (Dm); Table 4a): 2 µg/mL (≈ 3.37 µM)
IC90 (Diplodia maydis (Dm); Table 4b): 2 µg/mL (≈ 3.37 µM)
IC90 ([3]; Table 4a, 48 hours): 2 µg/mL (≈ 3.37 µM)
IC90 ([3]; Table 4b, 48 hours): 0.4 µg/mL (≈ 0.674 µM)
IC90 [4, 9]: > 50 µg/mL
IC90 [4, 10]: 10 µg/mL (≈ 16.8 µM)
IC90 ([5]; Table 4a, 48 hours): > 50 µg/mL
Concentration at 90% Inhibition Pc ([5]; Table 4b, 48 hours): D (“D” provided a compound concentration of >50 ppm at 90% inhibition of fungal pathogens)
IC90 (Rhizoctonia solani (Rs); Table 4a): 2 µg/mL (≈ 3.37 µM)
IC90 (Rhizoctonia solani (Rs); Table 4b): 2 µg/mL (≈ 3.37 µM)
Concentration at 90% Inhibition St (Septoria tritici (St); Table 4b, 48 hours): D (“D” provided a compound concentration of >50 ppm at 90% inhibition of fungal pathogens)
IC90 (Septoria tritici (St); Table 4a, 48 hours): > 50 µg/mL

Structure (SMILES): COc1ccccc1[C@H](Cn1c(=O)n(C(C)(C)C(=O)N2CCCCC2)c(=O)c2c(C)c(-n3cccn3)sc21)OCC(C)C [Compound I-23, (R)-1-(2-isobutoxy-2-(2-methoxyphenyl)ethyl)-5-methyl-3-(2-methyl-1-oxo-1-(piperidin-1-yl)propan-2-yl)-6-(1H-pyrazol-1-yl)thieno[2,3-d]pyrimidine-2,4(1H,3H)-dione]
IC50 (human (hACC2) ACC2): 10 to 40 nM
MIC (C. albicans ATCC 90028; ATCC90028, 48 h): 0.25 to 1 µg/mL (≈ 0.411 to 1.65 µM)
MIC (C. krusei ATCC 6258; ATCC6258, 48 h): 0.25 to 1 µg/mL (≈ 0.411 to 1.65 µM)
MIC ([1]; ATCC22019, 48 h): 1.1 to 2 µg/mL (≈ 1.81 to 3.29 µM)
IC90 (Botrtyis cinerea (Bc); Table 4a): 2 µg/mL (≈ 3.29 µM)
IC90 (Botrtyis cinerea (Bc); Table 4b): 2 µg/mL (≈ 3.29 µM)
IC90 ([2]; Table 4a): > 50 µg/mL
IC90 ([2]; Table 4b): 10 µg/mL (≈ 16.5 µM)
IC90 (Diplodia maydis (Dm); Table 4a): 10 µg/mL (≈ 16.5 µM)
IC90 (Diplodia maydis (Dm); Table 4b): 2 µg/mL (≈ 3.29 µM)
IC90 [3]: 0.4 µg/mL (≈ 0.658 µM)
Concentration at 90% Inhibition Fm ([3]; Table 4b, 48 hours): A (“A” provided a compound concentration of 0.4 ppm at 90% inhibition of fungal pathogens)
IC90 ([4]; read-out: Concentration at 90% Inhibition Fv, Table 4a, 48 hours): > 50 µg/mL
IC90 ([4]; read-out: Concentration at 90% Inhibition Fv, Table 4b, 48 hours): > 50 µg/mL
IC90 ([5]; 48 h, Table 4a): > 50 µg/mL
IC90 ([5]; 48 h, Table 4b): > 50 µg/mL
IC90 (Rhizoctonia solani (Rs); Table 4a): > 50 µg/mL
IC90 (Rhizoctonia solani (Rs); Table 4b): > 50 µg/mL
IC90 (Septoria tritici (St); 48 h, Table 4a): > 50 µg/mL
IC90 (Septoria tritici (St); 48 h, Table 4b): > 50 µg/mL

IC50 (human (hACC2) ACC2): 3 to 10 nM
MIC (C. albicans ATCC 90028; [6]): 1.1 to 2 µg/mL (≈ 1.84 to 3.35 µM)
MIC (C. krusei ATCC 6258; [7]): 0.25 to 1 µg/mL (≈ 0.418 to 1.67 µM)
MIC [1, 8]: 1.1 to 2 µg/mL (≈ 1.84 to 3.35 µM)
Structure (SMILES): COc1ccc(F)cc1[C@H](Cn1c(=O)n(C(C)(C)C(N)=O)c(=O)c2c(C)c(-n3cccn3)sc21)OC1CCC(=O)CC1 [Compound I-25, (R)-2-(1-(2-(5-fluoro-2-methoxyphenyl)-2-((4-oxocyclo-hexyl)oxy)ethyl)-5-methyl-2,4-dioxo-6-(1H-pyrazol-1-yl)-1,4-dihydro-thieno[2,3-d]pyrimidin-3(2H)-yl)-2-methylpropanamide]
IC90 (Botrtyis cinerea (Bc); Table 4a): > 50 µg/mL
IC90 (Botrtyis cinerea (Bc); Table 4b): 10 µg/mL (≈ 16.7 µM)
IC90 ([2]; Table 4a): > 50 µg/mL
IC90 ([2]; Table 4b): > 50 µg/mL
IC90 (Diplodia maydis (Dm); Table 4a): > 50 µg/mL
IC90 (Diplodia maydis (Dm); Table 4b): > 50 µg/mL
IC90 ([3]; Table 4a, 48 hours): 10 µg/mL (≈ 16.7 µM)
IC90 ([3]; Table 4b, 48 hours): 2 µg/mL (≈ 3.35 µM)
IC90 [4, 9]: > 50 µg/mL
IC90 [4, 10]: > 50 µg/mL
IC90 ([5]; Table 4a, 48 hours): > 50 µg/mL
Concentration at 90% Inhibition Pc ([5]; Table 4b, 48 hours): D (“D” provided a compound concentration of >50 ppm at 90% inhibition of fungal pathogens)
IC90 (Rhizoctonia solani (Rs); Table 4a): > 50 µg/mL
IC90 (Rhizoctonia solani (Rs); Table 4b): > 50 µg/mL
Concentration at 90% Inhibition St (Septoria tritici (St); Table 4b, 48 hours): D (“D” provided a compound concentration of >50 ppm at 90% inhibition of fungal pathogens)
IC90 (Septoria tritici (St); Table 4a, 48 hours): > 50 µg/mL

From US10941158B2, “Pyrazole ACC inhibitors and uses thereof” (Gilead Apollo, LLC, priority 2015, dated 2021)
